From EP0694299B1, “The use of( a) bicycloheptane derivative(s)” (EGIS GYOGYSZERGYAR RT., priority 1994, dated 1996)
Like-named read-outs stand apart in the source and are kept apart here.

Tested on: cholecyst contraction induced by yolk
Test: Inhibition of yolk-induced gallbladder (cholecyst) mass decrease in mice
Assay type: in vivo, male mice from the strain NMRI
Details: Mus musculus, po
Method: The effect of the bicycloheptane derivatives used according to the invention is verified on the following test. Known spasmolytics 1-[3',4'-di-(ethoxy)-benzyliden]-6,7-di-- [ethoxy] -1,2,3,4-terra-[hydro] -isoquinoline {drotaverine} and 1- [3',4'-di-(methoxy)-benzyl]-6,7-di-[methoxy] -isoquinoline {papaverine} are employed for comparison. (These spasmolytics are most often used in the therapeutical practice).
The tests were performed on male mice from the strain NMRI in groups consisting of 8 to 12 animals. At the beginning of the test, the animals were weighing 20 to 30 g.
The animals were starved for 24 hours before beginning the first treatment, however, they were allowed to consume water ad libitum. The compounds to be tested and the carrier (0.4% solution of methyl cellulose) were administered perorally in a volume of 10 ml/kg.
45 minutes after this treatment, an emulsion of 30% of yolk in 0.4% methyl cellulose solution was administered perorally. Each mouse consumed 0.5 ml of the emulsion. The animals of the control group consumed 0.5 ml of the carrier i.e. 0.4% methyl cellulose solution.
After 15 minutes, cervicalis dislocatio was employed, the gallbladders were removed and weighed, one by one. The effect of the compounds tested was given as the inhibition of the cholecyst mass decrease induced by yolk, in percentage. […] Table

[1] = dose causing 50% inhibition of the cholecyst mass decrease induced by yolk, p.o. 45 min before 30% yolk emulsion, gallbladders weighed 15 min later, linear regression, read-out: ID50 p.o.

Which ED50 [1] does the source give for CN(C)CCO[C@]1(c2ccccc2)C[C@H]2CC[C@]1(C)C2(C)C.O=C(O)/C=C/C(=O)O [(1R,2S,4R)-(-)-2-[Phenyl]-2-[2'-(dimethylamino)-ethoxy]-1,7,7-tri-[methyl] -bicyclo[2.2.1]heptane (E)-2-butenedioate] here?
The ED50 was 7 mg/kg.

Which ED50 [1] does the source give for CC1(C)[C@@H]2CC[C@@]1(C)[C@@](OCC[N+](C)(C)[O-])(c1ccccc1)C2 [(1R,2S,4R)-(-)-2-[Phenyl]-2-[2'-(dimethylamino)-ethoxy]-1,7,7-tri-[methyl]-bicyclo[2.2.1]heptane-N-oxide (E)-2-butenedioate] here?
The ED50 was greater than 100 mg/kg.

Which ED50 [1] does the source give for CN(C)CCO[C@@]1(c2ccccc2)C[C@@H]2CC[C@@]1(C)C2(C)C.O=C(O)/C=C/C(=O)O [(1S,2R,4S)-(+)-2-[Phenyl] -2-[2'-(dimethylamino)-ethoxy]-1,7,7-tri-[methyl] -bicyclo[2.2.1]heptane (E) -2-butenedioate] here?
Its ED50 is greater than 100 mg/kg.

CCOc1ccc(/C=C2\NCCc3cc(OCC)c(OCC)cc32)cc1OCC [Drotaverine, 1-[3',4'-di-(Ethoxy)-benzyliden]-6,7-di-[ethaxy]-1,2,3,4-tetra-[hydro]-isoquinoline, reference compound] was tested. Which ED50 [1] did it give?
Its ED50 is greater than 100 mg/kg.

With COc1ccc(Cc2nccc3cc(OC)c(OC)cc23)cc1OC [Papaverine, 1-[3',4'-di-(Methoxy)-benzyl]-6,7-di-[methoxy]-isoquinoline, reference compound] as the compound, how does the ED50 (read-out: ID50 p.o. in mg/kg) read?
The ED50 was greater than 100 mg/kg.
